Values after ≈ are worked out from the molar mass of the structure shown.
Experiments:
Providencia 2991 = assay type: cell-based; details: nutrient agar, 37° C., 18 hours
[1] = tested on: Escherichia coli K-12 ML 1629; assay type: cell-based; details: K12ML1629, nutrient agar, 37° C., 18 hours
[2] = tested on: Pseudomonas aeruginosa H11; assay type: cell-based; details: nutrient agar, 37° C., 18 hours
Salmonella typhi T-63 = assay type: cell-based; details: Salmonella enterica, 18 h
[3] = tested on: Salmonella enteritidis 1891; assay type: cell-based; details: Salmonella enterica, nutrient agar, 37° C., 18 hours
[4] = tested on: Escherichia coli K-12 ML 1630; assay type: cell-based; details: K12ML1630, nutrient agar, 37° C., 18 hours
Bacillus anthracis = assay: microbe, parasite or virus in culture; assay type: cell-based; details: 18 h
[5] = tested on: Pseudomonas aeruginosa No. 12; assay type: cell-based; details: nutrient agar, 37° C., 18 hours
[6] = tested on: Pseudomonas maltophilia GN907; assay type: cell-based; details: Stenotrophomonas maltophilia, nutrient agar, 37° C., 18 hours
[7] = tested on: Shigella dysenteriae JS 11910; assay type: cell-based; details: JS11910, 18 h
[8] = tested on: Escherichia coli K-12 LA 290 R55; assay: microbe, parasite or virus in culture; assay type: cell-based; details: K12LA290R55, 18 h
Escherichia coli NIHJ = assay type: cell-based; details: nutrient agar, 37° C., 18 hours
Proteus rettgeri GN311 = assay type: cell-based; details: Providencia rettgeri, nutrient agar, 37° C., 18 hours
[9] = tested on: Pseudomonas aeruginosa K-Ps102; assay type: cell-based; details: KPS102, 18 h
[10] = tested on: Escherichia coli K-12 LA 290 R64; assay: microbe, parasite or virus in culture; assay type: cell-based; details: K12LA290R64, 18 h
[11] = tested on: Pseudomonas aeruginosa 99; assay type: cell-based; details: Pseudomonas aeruginosa, 99, 18 h
Serratia marcescens = assay: microbe, parasite or virus in culture; details: 18 h
Protocol: (§1) Thus, the minimum inhibitory concentrations (mcg/ml) of the hexadeoxykanamycin and of the hexadeoxyamikacin according to this invention against various microorganisms were determined according to serial dilution method on a nutrient agar medium at 37° C., the estimation being made after 18 hours incubation. For comparison purpose, the minimum inhibitory concentrations of amikacin were also determined in the same manner as stated above.

[12] = tested on: Corynebacterium bovis 1810; assay: microbe, parasite or virus in culture; details: Corynebacterium bovis, 1810, 18 h
Protocol: as §1

[13] = tested on: Pseudomonas aeruginosa GN315; assay type: cell-based; details: nutrient agar, 37° C., 18 hours
[14] = tested on: Pseudomonas aeruginosa B-13; assay type: cell-based; details: B13, 18 h
Serratia SOU = assay type: cell-based; details: nutrient agar, 37° C., 18 hours
Providencia Pv 16 = assay type: cell-based; details: PV16, nutrient agar, 37° C., 18 hours
[15] = tested on: Escherichia coli K-12 J5R 11-2; assay type: cell-based; details: K12J5R112, nutrient agar, 37° C., 18 hours
[16] = tested on: Klebsiella pneumoniae 22 #3038; assay type: cell-based; details: nutrient agar, 37° C., 18 hours
[17] = tested on: Bacillus subtilis NRRL B-558; assay type: cell-based; details: NRRLB558, nutrient agar, 37° C., 18 hours
[18] = tested on: Staphylococcus aureus FDA 209P; assay type: cell-based; details: FDA209P, nutrient agar, 37° C., 18 hours
Escherichia coli W677 = assay type: cell-based; details: nutrient agar, 37° C., 18 hours
[19] = tested on: Escherichia coli K-12 C 600R135; assay: microbe, parasite or virus in culture; assay type: cell-based; details: K12C600R135, 18 h
[20] = tested on: Staphylococcus aureus Smith; assay type: cell-based; details: nutrient agar, 37° C., 18 hours
Escherichia coli K-12 = assay type: cell-based; details: K12, nutrient agar, 37° C., 18 hours
[21] = tested on: Pseudomonas aeruginosa 21-75; assay type: cell-based; details: 2175, nutrient agar, 37° C., 18 hours
[22] = tested on: Shigella flexneri 4b JS11811; assay type: cell-based; details: 4BJS11811, nutrient agar, 37° C., 18 hours
[23] = tested on: Staphylococcus aureus Ap01; assay type: cell-based; details: nutrient agar, 37° C., 18 hours
Shigella sonnei JS11746 = assay type: cell-based; details: nutrient agar, 37° C., 18 hours
[24] = tested on: Escherichia coli K-12 ML 1410 R81; assay: microbe, parasite or virus in culture; assay type: cell-based; details: 18 h
Escherichia coli K-12 R5 = assay type: cell-based; details: K12R5, 18 h
[25] = tested on: Staphylococcus epidermidis 109; assay type: cell-based; details: nutrient agar, 37° C., 18 hours
Proteus rettgeri GN466 = assay type: cell-based; details: Providencia rettgeri, nutrient agar, 37° C., 18 hours
Proteus vulgaris OX19 = assay type: cell-based; details: nutrient agar, 37° C., 18 hours
Serratia 4 = assay type: cell-based; details: nutrient agar, 37° C., 18 hours
[26] = tested on: Escherichia coli K-12 R 388; assay type: cell-based; details: K12R388, 18 h
[27] = tested on: Escherichia coli JR66/W677; assay type: cell-based; details: JR66/W677, 18 h
[28] = tested on: Pseudomonas aeruginosa A3; assay type: cell-based; details: A3, 18 h

C[C@@H]1C[C@H](N)[C@@H](O)[C@@H](O[C@@H]2C[C@H](O[C@@H]3CCC[C@@H](CN)O3)[C@@H](N)C[C@H]2N)O1 [Hexadeoxykanamycin, 5,2',3',4',4",6"-hexadeoxykanamycin]
MIC (Providencia 2991): 50 µg/mL (≈ 129 µM)
MIC [1]: 25 µg/mL (≈ 64.3 µM)
MIC [2]: > 100 µg/mL
MIC (Salmonella typhi T-63): 0.78 µg/mL (≈ 2.01 µM)
MIC [3]: 1.56 µg/mL (≈ 4.02 µM)
MIC [4]: 25 µg/mL (≈ 64.3 µM)
MIC (Bacillus anthracis): 1.56 µg/mL (≈ 4.02 µM)
MIC [5]: 50 µg/mL (≈ 129 µM)
MIC [6]: > 100 µg/mL
MIC [7]: 6.25 µg/mL (≈ 16.1 µM)
MIC [8]: 100 µg/mL (≈ 257 µM)
MIC (Escherichia coli NIHJ): 3.13 µg/mL (≈ 8.06 µM)
MIC (Proteus rettgeri GN311): 0.78 µg/mL (≈ 2.01 µM)
MIC [9]: > 100 µg/mL
MIC [10]: 25 µg/mL (≈ 64.3 µM)
MIC [11]: > 100 µg/mL
MIC (Serratia marcescens): 6.25 µg/mL (≈ 16.1 µM)
MIC [12]: 6.25 µg/mL (≈ 16.1 µM)
MIC [13]: > 100 µg/mL
MIC [14]: > 100 µg/mL
MIC (Serratia SOU): > 100 µg/mL
MIC (Providencia Pv 16): 12.5 µg/mL (≈ 32.2 µM)
MIC [15]: 25 µg/mL (≈ 64.3 µM)
MIC [16]: > 100 µg/mL
MIC [17]: 0.78 µg/mL (≈ 2.01 µM)
MIC [18]: 1.56 µg/mL (≈ 4.02 µM)
MIC (Escherichia coli W677): 1.56 µg/mL (≈ 4.02 µM)
MIC [19]: 1.56 µg/mL (≈ 4.02 µM)
MIC [20]: 0.78 µg/mL (≈ 2.01 µM)
MIC (Escherichia coli K-12): 1.56 µg/mL (≈ 4.02 µM)
MIC [21]: > 100 µg/mL
MIC [22]: 6.25 µg/mL (≈ 16.1 µM)
MIC [23]: 3.13 µg/mL (≈ 8.06 µM)
MIC (Shigella sonnei JS11746): 3.13 µg/mL (≈ 8.06 µM)
MIC [24]: 25 µg/mL (≈ 64.3 µM)
MIC (Escherichia coli K-12 R5): > 100 µg/mL
MIC [25]: 3.13 µg/mL (≈ 8.06 µM)
MIC (Proteus rettgeri GN466): 1.56 µg/mL (≈ 4.02 µM)
MIC (Proteus vulgaris OX19): 1.56 µg/mL (≈ 4.02 µM)
MIC (Serratia 4): 25 µg/mL (≈ 64.3 µM)
MIC [26]: 1.56 µg/mL (≈ 4.02 µM)
MIC [27]: > 100 µg/mL
MIC [28]: 3.13 µg/mL (≈ 8.06 µM)

Reference: patent US4486419A, “5,2',3',4',4",6"-Hexadeoxykanamycin and its 1-N-acylated derivative” (Zaidan Hojin Biseibutsu Kagaku Kenkyu Kai, priority 1982, dated 1984)
